In patent publication US7745641B2, “Nitrogen-containing heterocyclic compound” (Kyowa Hakko Kirin Co., Ltd., priority 2005, dated 2010):

Tests used:
HCT116 cells = experiment: Evaluation of Aurora inhibitory activity by analysis of nuclear morphology (enlarged lobed nuclei); format: cell-based, human; conditions: concentration in the range of 0.1 to 1 μmol/L, 17 hours contact; optimal concentration different in each compound
Description: 281 (2003)]. Consequently, enlarged lobed nuclei-inducibility of test compounds for HCT116 cells was evaluated. McCoy's 5A culture medium (GIBCO, Catalogue No. 16600-082) containing 10% bovine fetus serum (GIBCO, Catalogue No. 10099-141) was used for the cultivation of the cells. HCT116 cells were inoculated and, 24 hours later, each test compound was added thereto.

Aurora = Aurora inhibitory activity using Western blotting method (phosphorylation of histone H3 Ser10); format: cell-based, human; conditions: 10 μmol/L, 30 minutes, HCT116 cells accumulated in M phase with Nocodazole
Description: It is known that Aurora phosphorylates Ser10 of histone H3 in the G2/M phase during the cell cycle [Molecular and Cellular Biology, Vol. 22, p. 874 (2002)]. Consequently, the inhibition of phosphorylation of histone H3 Ser10 in cells was detected by a Western blotting method using human colon cancer cell line HCT116 cells accumulated in the M phase. McCoy's 5A culture medium (GIBCO, Catalogue No. 16600-082) containing 10% bovine fetus serum (GIBCO, Catalogue No. 10099-141) was used for the cultivation of the cells. The HCT116 cells were inoculated and then treated with Nocodazole (Sigma Corporation, Catalogue No. M-1404) so that the cell cycle was accumulated to the M phase. A test compound (final concentration: 10 μmol/L) was added thereto, and the cells were incubated at 37° C. for 30 minutes. The cells were then recovered and washed with a phosphate buffered saline (PBS) once. The cells were suspended in a cell-solubilizing solution (50 mmol/L 2-[4-(2-hydroxyethyl)-1-piperazinyl]ethanesulfonic acid (HEPES) (pH 7.4), 150 mmol/L NaCl, 1 mmol/L ethylenediamine-N,N,N′,N′-tetraacetic acid disodium salt dihydrate (EDTA), 2.5 mmol/L ethylene glycol bis(2-aminoethylether)-N,N,N′,N′-tetraacetic acid (EGTA), 0.1% Tween-20 (Bio-Rad Laboratories Inc., Catalogue No. 170-6531), 10% β-glycerophosphate, 1 mmol/L NaF, 0.1 mmol/L Na3VO4, 1 mmol/L Pefabloc SC (Roche Diagnostics K.K., Catalogue No. 1 429 868), and Complete EDTA-free (Roche Diagnostics K.K., Catalogue No. 1 873 580)}, and the suspension was frozen and thawed. Subsequently, the supernatant obtained by centrifugal separation was used as a cell extraction solution. SDS-PAGE was performed using a 12.5% polyacrylamide gel under the condition that the amount of protein per sample was 30 μg in accordance with the method used by Laemmli et al. The protein was transferred onto a PVDF membrane (Millipore Corporation, Catalogue No. IPVH304F0) by a semi-dry method. The membrane was allowed to react with anti-phosphorylated histone H3 Ser10 antibody (Upstate Inc., Catalogue No. 06-570) used as a primary antibody, and an HRP-labeled anti-rabbit IgG antibody (Amersham biosciences, Catalogue No. NA934V) used as a secondary antibody. Subsequently, […] was detected using a SuperSignal West Pico chemiluminescence substrate (Pierce, Catalogue No. 34077).

| melting point | SMILES | ability of inducing enlarged lobed nuclei for HCT116 cells (HCT116 cells) | suppression of the phosphorylation of histone H3 Ser10 in HCT116 cells (Aurora) |
| --- | --- | --- | --- |
| – | Cl.NS(=O)(=O)Oc1ccc(-c2cc3cc(CN4CCCCC4)ccc3[nH]2)c2c1CNC2=O [Compound 231, 4-Sulfamoyloxy-7-[1H-5-(piperidinomethyl)indol-2-yl]isoindolinone hydrochloride] | show ability of inducing enlarged lobed nuclei | almost completely suppressed |
| – | COc1cc(-c2cc3cc(N4CCN(C)CC4)ccc3[nH]2)c2c(c1OS(C)(=O)=O)CNC2=O.Cl.Cl [Compound 457, 4-Methanesulfonyloxy-5-methoxy-7-[1H-5-(4-methylpyperazin-1-yl)indol-2-yl]isoindolinone dihydrochloride] | show ability of inducing enlarged lobed nuclei | almost completely suppressed |
| – | Cl.O=C1NCc2c(Cl)ccc(-c3cc4cc(C(=O)N5CCNCC5)ccc4[nH]3)c21 [Compound 22] | show ability of inducing enlarged lobed nuclei | almost completely suppressed |
| – | CN(C)Cc1ccc2[nH]c(-c3cc(OCCCO)c(Cl)c4c3C(=O)NC4)cc2c1.Cl [Compound 431, 4-Chloro-5-(3-hydroxypropoxy)-7-[1H-5-(dimethylaminomethyl)indol-2-yl]isoindolinone hydrochloride] | show ability of inducing enlarged lobed nuclei | almost completely suppressed |
| – | Cl.O=C1NCc2c(-c3ccco3)ccc(-c3cc4cc(CN5CCCCC5)ccc4[nH]3)c21 [Compound 143, 4-(Furan-2-yl)-7-[1H-5-(piperidinomethyl)indol-2-yl]isoindolinone hydrochloride] | show ability of inducing enlarged lobed nuclei | almost completely suppressed |
| – | COc1cc(-c2cc3cc(CN(C)C)ccc3[nH]2)c2c(c1O)CNC2=O.Cl [Compound 357, 4-Hydroxy-5-methoxy-7-[1H-5-(dimethylaminomethyl)indol-2-yl]isoindolinone hydrochloride] | show ability of inducing enlarged lobed nuclei | almost completely suppressed |
| – | Cl.O=C1NCc2c(Cl)ccc(-c3cc4cc(CN5CCCCC5)ccc4[nH]3)c21 [Compound 29, 4-Chloro-7-[1H-5-(piperidinomethyl)indol-2-yl]isoindolinone hydrochloride] | show ability of inducing enlarged lobed nuclei | almost completely suppressed |
| – | COc1cc(-c2cc3cc(CN(C)C)ccc3[nH]2)c2c(c1OS(=O)(=O)c1ccccn1)CNC2=O.Cl [Compound 412, 4-(2-Pyridinesulfonyloxy)-5-methoxy-7-[1H-5-(dimethylaminomethyl)indol-2-yl]isoindolinone hydrochloride] | show ability of inducing enlarged lobed nuclei | almost completely suppressed |
| – | CCN(CC)Cc1ccc2[nH]c(-c3cc(OC)c(OS(C)(=O)=O)c4c3C(=O)NC4)cc2c1.Cl [Compound 376, 4-Methanesulfonyloxy-5-methoxy-7-[1H-5-(diethylaminomethyl)indol-2-yl]isoindolinone hydrochloride] | show ability of inducing enlarged lobed nuclei | almost completely suppressed |
| – | COc1cc(-c2cc3cc(CN4CCCCC4)ccc3[nH]2)c2c(c1OS(=O)(=O)c1ccsc1)CNC2=O.Cl [Compound 407, 4-(3-Thiophenesulfonyloxy)-5-methoxy-7-[1H-5-(piperidinomethyl)indol-2-yl]isoindolinone hydrochloride] | show ability of inducing enlarged lobed nuclei | almost completely suppressed |
| 271 to 272 °C | CN(C)CCN1CCN(C(=O)c2ccc3[nH]c(-c4ccc(Cl)c5c4C(=O)NC5)cc3c2)CC1 [Compound 112, 4-Chloro-7-{1H-5-[4-(2-dimethylaminoethyl)piperazin-1-ylcarbonyl]indol-2-yl}isoindolinone] | – | – |
| – | CNCc1ccc2[nH]c(-c3cc(OC)c(OS(C)(=O)=O)c4c3C(=O)NC4)cc2c1.Cl [Compound 375, 4-Methanesulfonyloxy-5-methoxy-7-[1H-5-(methylaminomethyl)indol-2-yl]isoindolinone hydrochloride] | show ability of inducing enlarged lobed nuclei | almost completely suppressed |
| > 295 °C | O=C1NCc2c(Cl)ccc(-c3cc4cc(C(=O)N5CCN(c6ccccn6)CC5)ccc4[nH]3)c21 [Compound 107, 4-Chloro-7-{1H-5-[4-(pyridin-2-yl)piperazin-1-ylcarbonyl]indol-2-yl}isoindolinone] | – | – |
| 255 °C | O=C1NCc2c(Cl)ccc(-c3cc4cc(C(=O)N5CCN(CCOCCO)CC5)ccc4[nH]3)c21 [Compound 109, 4-Chloro-7-{1H-5-[4-(2-(2-hydroxyethoxy)ethyl)piperazin-1-ylcarbonyl]indol-2-yl}isoindolinone] | – | – |
| – | Cl.O=C1NCc2c(C#CCO)ccc(-c3cc4cc(CN5CCCCC5)ccc4[nH]3)c21 [Compound 321, 4-(3-Hydroxy-1-propinyl)-7-[1H-5-(piperidinomethyl)indol-2-yl]isoindolinone hydrochloride] | show ability of inducing enlarged lobed nuclei | almost completely suppressed |
| 196 to 199 °C | COc1cc(-c2cc3cc(CNC4CCCCC4)ccc3[nH]2)c2c(c1OS(C)(=O)=O)CNC2=O [Compound 365, 4-Methanesulfonyloxy-5-methoxy-7-[1H-5-(cyclohexylaminomethyl)indol-2-yl]isoindolinone] | – | – |
| – | Cl.O=C1NCc2c(Cl)ccc(-c3cc4cc(CNCCO)ccc4[nH]3)c21 [Compound 32, 4-Chloro-7-{1H-5-[(2-hydroxyethyl)aminomethyl]indol-2-yl}isoindolinone hydrochloride] | show ability of inducing enlarged lobed nuclei | almost completely suppressed |
| – | Cl.Cl.O=C1NCc2c(Cl)ccc(-c3cc4cc(CN5CCN(CCO)CC5)ccc4[nH]3)c21 [Compound 24, 4-Chloro-7-{1H-5-[4-(2-hydroxyethyl)piperazin-1-ylmethyl]indol-2-yl}isoindolinone dihydrochloride] | show ability of inducing enlarged lobed nuclei | almost completely suppressed |
| – | Cl.O=C1NCc2c(O)ccc(-c3cc4cc(CN5CCCCC5)ccc4[nH]3)c21 [Compound 139, 4-Hydroxy-7-[1H-5-(piperidinomethyl)indol-2-yl]isoindolinone hydrochloride] | show ability of inducing enlarged lobed nuclei | almost completely suppressed |
| – | COCCCNCc1ccc2[nH]c(-c3cc(OC)c(OS(C)(=O)=O)c4c3C(=O)NC4)cc2c1.Cl [Compound 454, 4-Methanesulfonyloxy-5-methoxy-7-[1H-5-(3-methoxypropylaminomethyl)indol-2-yl]isoindolinone hydrochloride] | show ability of inducing enlarged lobed nuclei | almost completely suppressed |
| – | COc1cc(-c2cc3cc(CN4CCCC4)ccc3[nH]2)c2c(c1OS(=O)(=O)N(C)C)CNC2=O.Cl [Compound 417, 4-(Dimethylsulfamoyloxy)-5-methoxy-7-[1H-5-(pyrrolidin-1-ylmethyl)indol-2-yl]isoindolinone hydrochloride] | show ability of inducing enlarged lobed nuclei | almost completely suppressed |
